Assay results from US12435044B2, “Pyridazinone herbicides and pyridazinone intermediates used to prepare a herbicide” (FMC Corporation, priority 2018, dated 2025).

How the values were obtained:
Assay in all cases: Test G preemergence, mixtures of Cpd. No. 20 with (b15C1)
Assay type in all cases: in vivo
[1] = tested on: barnyardgrass (ECHCG; Echinochloa crus-galli)
Text: (§1) This test evaluated the effect of mixtures of Cpd. No. 20 with (b15C1) on several plant species. Seeds of plant species selected from corn (ZEAMD; Zea mays, cv. ‘Pioneer 1184’), soybean (GLXMA; Glycine max, cv. Pioneer 35T58), giant foxtail (SETFA; Setaria faberi), barnyardgrass (ECHCG; Echinochloa crus-galli), large crabgrass (DIGSA; Digitaria sanguinalis), palmer amaranth (AMAPA; Amaranthus palmeri), common waterhemp (AMATU; Amaranthus rudis), and common ragweed (AMBEL; Ambrosia artemisiifolia) were planted in pots containing Tama Silt Loam soil and treated preemergence with a directed soil spray using test chemicals formulated in a non-phytotoxic solvent mixture which included a surfactant.
(§2) Treated plants and untreated controls were maintained in a greenhouse for approximately 21 d, after which time all treated plants were compared to untreated controls and visually evaluated for injury. Plant response ratings, summarized in Table G, are based on a 0 to 100 scale where 0 is no effect and 100 is complete control. A dash (-) response means no test result. Test results are presented as a mean of 4 reps.

[2] = tested on: common ragweed (AMBEL; Ambrosia artemisiifolia)
Text: as §1, §2

[3] = tested on: common waterhemp (AMATU; Amaranthus rudis)
Text: as §1, §2

[4] = tested on: corn (ZEAMD; Zea mays, cv. ‘Pioneer 1184’)
Text: as §1, §2

[5] = tested on: giant foxtail (SETFA; Setaria faberi)
Text: as §1, §2

[6] = tested on: large crabgrass (DIGSA; Digitaria sanguinalis)
Text: as §1, §2

[7] = tested on: palmer amaranth (AMAPA; Amaranthus palmeri)
Text: as §1, §2

[8] = tested on: soybean (GLXMA; Glycine max, cv. Pioneer 35T58)
Text: as §1, §2

FC(F)c1cc(-c2c(Cl)cccc2Oc2ncc(Cl)cn2)on1 [(b15C1), 5-chloro-2-[3-chloro-2-[3-(difluoromethyl)-5-isoxazolyl]phenoxy]-pyrimidine, reference compound]
Plant response rating (0 to 100 scale) ([1]; (b15C1) 8 g a.i./ha alone): 0
Plant response rating (0 to 100 scale) ([1]; (b15C1) 16 g a.i./ha alone): 0
Plant response rating (0 to 100 scale) ([1]; (b15C1) 31 g a.i./ha alone): 35
Plant response rating (0 to 100 scale) ([2]; (b15C1) 8 g a.i./ha alone): 54
Plant response rating (0 to 100 scale) ([2]; (b15C1) 16 g a.i./ha alone): 90
Plant response rating (0 to 100 scale) ([2]; (b15C1) 31 g a.i./ha alone): 100
Plant response rating (0 to 100 scale) ([3]; (b15C1) 8 g a.i./ha alone): 0
Plant response rating (0 to 100 scale) ([3]; (b15C1) 16 g a.i./ha alone): 0
Plant response rating (0 to 100 scale) ([3]; (b15C1) 31 g a.i./ha alone): 20
Plant response rating (0 to 100 scale) ([4]; (b15C1) 8 g a.i./ha alone): 0
Plant response rating (0 to 100 scale) ([4]; (b15C1) 16 g a.i./ha alone): 0
Plant response rating (0 to 100 scale) ([4]; (b15C1) 31 g a.i./ha alone): 0
Plant response rating (0 to 100 scale) ([5]; (b15C1) 8 g a.i./ha alone): 5
Plant response rating (0 to 100 scale) ([5]; (b15C1) 16 g a.i./ha alone): 34
Plant response rating (0 to 100 scale) ([5]; (b15C1) 31 g a.i./ha alone): 74
Plant response rating (0 to 100 scale) ([6]; (b15C1) 8 g a.i./ha alone): 54
Plant response rating (0 to 100 scale) ([6]; (b15C1) 16 g a.i./ha alone): 90
Plant response rating (0 to 100 scale) ([6]; (b15C1) 31 g a.i./ha alone): 100
Plant response rating (0 to 100 scale) ([7]; (b15C1) 8 g a.i./ha alone): 60
Plant response rating (0 to 100 scale) ([7]; (b15C1) 16 g a.i./ha alone): 88
Plant response rating (0 to 100 scale) ([7]; (b15C1) 31 g a.i./ha alone): 97
Plant response rating (0 to 100 scale) ([8]; (b15C1) 8 g a.i./ha alone): 0
Plant response rating (0 to 100 scale) ([8]; (b15C1) 16 g a.i./ha alone): 0
Plant response rating (0 to 100 scale) ([8]; (b15C1) 31 g a.i./ha alone): 0
